Data taken from patent US11472811B2, “Pyrazolotriazolopyrimidine derivatives as A2A receptor antagonist” (BEIGENE, LTD., priority 2018, dated 2022).

target: human A2A receptor (A2AR) (Homo sapiens (Human), UniProt P29274); assay: Luciferase reporter assay (HEK293-A2AR-luc2p/CRE/Hygro cells); type: cell-based; conditions: 3 nM CGS21680, 5 h incubation
Protocol: HEK293 cells were maintained in Dulbecco's modified Eagle's medium (DMEM, Gibco) supplemented with 10% fetal bovine serum (FBS, Thermo Scientific), 100 units/mL penicillin (Gibco), and 0.1 mg/mL streptomycin (Gibco) in a humidified 37° C. environment with 5% CO2. Plasmid encoding wild-type human A2A receptor (A2AR) (in pcDNA3.1) was synthesized by Genscript (Nanjing, China). Transfection of the plasmids was performed in 6-well plates with 4×10^5 cells using Lipofectamin 2000 (ThermoFisher Scientific) according to the instruction of the manufacturer. Cell clones that stably express A2AR were established and maintained in the same complete medium as the HEK293 cells in addition of G-418 (Gibico). Expression level of A2AR in each single cell clone was determined using immunoblotting and FACS method. HEK293-A2AR stable cells were then transfected with pGL4.29[luc2P/CRE/Hygro] (Promega) luciferase reporter plasmid for establishing the HEK293-A2AR-luc2p/CRE/Hygro stable cell line.
HEK293-A2AR-luc2p/CRE/Hygro cells were seeded at a density of 5,000 cells/well in DMEM with 1% FBS and 1 U/mL adenosine deaminase (ADA) (Sigma). After 18 h, the cells were treated with 3 nM CGS21680 plus a series dilution of A2AR antagonist, the compounds disclosed herein at the concentration of 0.1˜10000 nM, prepared in DMEM with 1% FBS. After 5 h incubation, the luciferase activity in cells were measured using the Bright-Glo Luciferase Assay System (Promega) according to manufacturer's instructions. The luminescence signal was measured using a PHERAstar FS plate reader (BMG Labtech). […] Maximal luminescence intensity was determined in the presence of 3 nM CGS21680 and was set as 100%. The IC50 value was calculated from a dose dependent inhibition curve across the range of compound concentrations.

Sequence of human A2A receptor (A2AR) (P29274 whole entry): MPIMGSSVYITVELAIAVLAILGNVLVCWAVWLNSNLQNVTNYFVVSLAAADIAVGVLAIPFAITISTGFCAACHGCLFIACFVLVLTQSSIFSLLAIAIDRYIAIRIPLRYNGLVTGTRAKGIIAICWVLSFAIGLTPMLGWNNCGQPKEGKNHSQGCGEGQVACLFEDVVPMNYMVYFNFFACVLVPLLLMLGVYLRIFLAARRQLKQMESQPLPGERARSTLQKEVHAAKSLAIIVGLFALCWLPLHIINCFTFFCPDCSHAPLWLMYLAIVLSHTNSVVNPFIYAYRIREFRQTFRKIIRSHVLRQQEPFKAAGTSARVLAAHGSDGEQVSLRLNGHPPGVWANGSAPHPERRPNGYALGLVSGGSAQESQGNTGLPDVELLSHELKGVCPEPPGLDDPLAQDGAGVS

Row | SMILES | IC50
1 | CC(C(=O)NC1CCNCC1)(c1ccccc1)n1ncc2c1nc(N)n1nc(-c3ccco3)nc21 (centres unmarked) [Example 101, 2-(5-amino-2-(furan-2-yl)-7H-pyrazolo[4,3-e][1,2,4]triazolo[1,5-c]pyrimidin-7-yl)-2-phenyl-N-(piperidin-4-yl)propanamide] | 35.1 nM
2 | CC(C(=O)N[C@H]1CC[C@H](O)C1)(c1ccccc1)n1ncc2c1nc(N)n1nc(-c3ccco3)nc21 (stereo partly drawn) [Example 95, 2-(5-amino-2-(furan-2-yl)-7H-pyrazolo[4,3-e][1,2,4]triazolo[1,5-c]pyrimidin-7-yl)-N-((1S,3S)-3-hydroxycyclopentyl)-2-phenylpropanamide] | 9.5 nM
3 | C[C@](C(=O)NCc1cccc(C(F)(F)F)n1)(c1ccccc1)n1ncc2c1nc(N)n1nc(-c3ccco3)nc21 [Example 144B, (R)-2-(5-amino-2-(furan-2-yl)-7H-pyrazolo[4,3-e][1,2,4]triazolo[1,5-c]pyrimidin-7-yl)-2-phenyl-N-((6-(trifluoromethyl)pyridin-2-yl)methyl)propanamide] | 2.1 nM
4 | CC(C(=O)N[C@H]1CC[C@](C)(O)CC1)(c1ccccc1)n1ncc2c1nc(N)n1nc(-c3ccco3)nc21 (stereo partly drawn) [Example 69, 2-(5-amino-2-(furan-2-yl)-7H-pyrazolo[4,3-e][1,2,4]triazolo[1,5-c]pyrimidin-7-yl)-(cis)-N-(4-hydroxy-4-methylcyclohexyl)-2-phenylpropanamide] | 10.5 nM
5 | CC(Cc1ccccc1)(C(=O)NCC1(O)COC1)n1ncc2c1nc(N)n1nc(-c3ccco3)nc21 (centres unmarked) [Example 132, 2-(5-amino-2-(furan-2-yl)-7H-pyrazolo[4,3-e][1,2,4]triazolo[1,5-c]pyrimidin-7-yl)-N-((3-hydroxyoxetan-3-yl)methyl)-2-methyl-3-phenylpropanamide] | 15.7 nM
6 | COc1ccnc(CNC(=O)[C@@](C)(c2ccccc2)n2ncc3c2nc(N)n2nc(-c4ccco4)nc32)c1 [Example 114B, (R)-2-(5-amino-2-(furan-2-yl)-7H-pyrazolo[4,3-e][1,2,4]triazolo[1,5-c]pyrimidin-7-yl)-N-((4-methoxypyridin-2-yl)methyl)-2-phenylpropanamide] | 4.6 nM
7 | Nc1nc2c(cnn2C(C(=O)NCc2ccc(OC(F)(F)F)cc2)c2ccccc2)c2nc(-c3ccco3)nn12 (centres unmarked) [Example 24, 2-(5-amino-2-(furan-2-yl)-7H-pyrazolo[4,3-e][1,2,4]triazolo[1,5-c]pyrimidin-7-yl)-2-phenyl-N-(4-(trifluoromethoxy)benzyl)acetamide] | 5.6 nM
8 | Nc1nc2c(cnn2C(C(=O)N[C@@H]2CCC[C@@H]2O)c2ccccc2)c2nc(-c3ccco3)nn12 (stereo partly drawn) [Example 90, 2-(5-amino-2-(furan-2-yl)-7H-pyrazolo[4,3-e][1,2,4]triazolo[1,5-c]pyrimidin-7-yl)-N-((1R,2S)-2-hydroxycyclopentyl)-2-phenylacetamide] | 6.9 nM
9 | CC(C(=O)NCc1cccc(F)n1)(c1ccccc1)n1ncc2c1nc(N)n1nc(-c3ccco3)nc21 (centres unmarked) [Example 116, 2-(5-amino-2-(furan-2-yl)-7H-pyrazolo[4,3-e][1,2,4]triazolo[1,5-c]pyrimidin-7-yl)-N-((6-fluoropyridin-2-yl)methyl)-2-phenylpropanamide] | 2.2 nM
10 | CC(C(=O)NCC1(O)COC1)(c1ccccc1)n1ncc2c1nc(N)n1nc(-c3ccco3)nc21 (centres unmarked) [Example 31, 2-(5-amino-2-(furan-2-yl)-7H-pyrazolo[4,3-e][1,2,4]triazolo[1,5-c]pyrimidin-7-yl)-N-((3-hydroxyoxetan-3-yl)methyl)-2-phenylpropanamide] | 5.8 nM
11 | CC(C(=O)NCC1(O)COC1)(c1cccnc1)n1ncc2c1nc(N)n1nc(-c3ccco3)nc21 (centres unmarked) [Example 89, 2-(5-amino-2-(furan-2-yl)-7H-pyrazolo[4,3-e][1,2,4]triazolo[1,5-c]pyrimidin-7-yl)-N-((3-hydroxyoxetan-3-yl)methyl)-2-(pyridin-3-yl)propanamide] | 767 nM
12 | NC(=O)C(c1ccccc1)n1ncc2c1nc(N)n1nc(-c3ccco3)nc21 (centres unmarked) [Example 19, 2-(5-amino-2-(furan-2-yl)-7H-pyrazolo[4,3-e][1,2,4]triazolo[1,5-c]pyrimidin-7-yl)-2-phenylacetamide] | 4.5 nM
13 | COCCOc1ccc(N2CCC(NC(=O)C(C)(c3ccccc3)n3ncc4c3nc(N)n3nc(-c5ccco5)nc43)CC2)cc1 (centres unmarked) [Example 46, 2-(5-amino-2-(furan-2-yl)-7H-pyrazolo[4,3-e][1,2,4]triazolo[1,5-c]pyrimidin-7-yl)-N-(1-(4-(2-methoxyethoxy)phenyl)piperidin-4-yl)-2-phenylpropanamide] | 10.9 nM
14 | Nc1nc2c(cnn2C(C(=O)NC2CCCCC2)c2ccccc2)c2nc(-c3ccco3)nn12 (centres unmarked) [Example 2, 2-(5-amino-2-(furan-2-yl)-7H-pyrazolo[4,3-e][1,2,4]triazolo[1,5-c]pyrimidin-7-yl)-N-cyclohexyl-2-phenylacetamide] | 11.9 nM
15 | CNC(=O)C(c1ccccc1)n1ncc2c1nc(N)n1nc(-c3ccco3)nc21 (centres unmarked) [Example 4, 2-(5-amino-2-(furan-2-yl)-7H-pyrazolo[4,3-e][1,2,4]-triazolo[1,5-c]pyrimidin-7-yl)-N-methyl-2-phenylacetamide] | 3.8 nM
16 | C[C@](C(=O)N[C@H]1CC[S@@+]([O-])CC1)(c1ccccc1)n1ncc2c1nc(N)n1nc(-c3ccco3)nc21 (single isomer, unassigned) [Example 146B-1] | 39.3 nM
17 | C[C@](C(=O)NCc1ccc(F)cn1)(c1ccccc1)n1ncc2c1nc(N)n1nc(-c3ccco3)nc21 [Example 117B, (R)-2-(5-amino-2-(furan-2-yl)-7H-pyrazolo[4,3-e][1,2,4]triazolo[1,5-c]pyrimidin-7-yl)-N-((5-fluoropyridin-2-yl)methyl)-2-phenylpropanamide] | 3.2 nM
18 | CC(C(=O)N[C@H]1COC[C@@H]1O)(c1ccccc1)n1ncc2c1nc(N)n1nc(-c3ccco3)nc21 (stereo partly drawn) [Example 106, 2-(5-amino-2-(furan-2-yl)-7H-pyrazolo[4,3-e][1,2,4]triazolo[1,5-c]pyrimidin-7-yl)-N-((3S,4R)-4-hydroxytetrahydrofuran-3-yl)-2-phenylpropanamide] | 50.9 nM
19 | CC(C(=O)N[C@H]1COC[C@H]1O)(c1ccccc1)n1ncc2c1nc(N)n1nc(-c3ccco3)nc21 (stereo partly drawn) [Example 107, 2-(5-amino-2-(furan-2-yl)-7H-pyrazolo[4,3-e][1,2,4]triazolo[1,5-c]pyrimidin-7-yl)-N-((3S,4S)-4-hydroxytetrahydrofuran-3-yl)-2-phenylpropanamide] | 76.3 nM
20 | COc1ccccc1CNC(=O)C(CC(C)C)n1ncc2c1nc(N)n1nc(-c3ccco3)nc21 (centres unmarked) [Example 27, 2-(5-amino-2-(furan-2-yl)-7H-pyrazolo[4,3-e][1,2,4]triazolo[1,5-c]pyrimidin-7-yl)-N-(2-methoxybenzyl)-4-methylpentanamide] | 16.1 nM
21 | CC(C(=O)N[C@H]1C[C@@H](O)C1)(c1ccccc1)n1ncc2c1nc(N)n1nc(-c3ccco3)nc21 (some centres unmarked) [Example 104, 2-(5-amino-2-(furan-2-yl)-7H-pyrazolo[4,3-e][1,2,4]triazolo[1,5-c]pyrimidin-7-yl)-N-((1s,3s)-3-hydroxycyclobutyl)-2-phenylpropanamide] | 18.2 nM
22 | CC(C(=O)N[C@H]1CCCC[C@H]1O)(c1ccccc1)n1ncc2c1nc(N)n1nc(-c3ccco3)nc21 (stereo partly drawn) [Example 56, 2-(5-amino-2-(furan-2-yl)-7H-pyrazolo[4,3-e][1,2,4]triazolo[1,5-c]pyrimidin-7-yl)-N-((1S,2R)-2-hydroxycyclohexyl)-2-phenylpropanamide] | 10.9 nM
23 | Cc1nccnc1-c1nc2c3cnn(C(C)(C(=O)NCC4(O)COC4)c4ccccc4)c3nc(N)n2n1 (centres unmarked) [Example 78, 2-(5-amino-2-(3-methylpyrazin-2-yl)-7H-pyrazolo[4,3-e][1,2,4]triazolo[1,5-c]pyrimidin-7-yl)-N-((3-hydroxyoxetan-3-yl)methyl)-2-phenylpropanamide] | 83.3 nM
24 | CN(C)CCNC(=O)C(C)(c1ccccc1)n1ncc2c1nc(N)n1nc(-c3ccco3)nc21 (centres unmarked) [Example 62, 2-(5-amino-2-(furan-2-yl)-7H-pyrazolo[4,3-e][1,2,4]triazolo[1,5-c]pyrimidin-7-yl)-N-(2-(dimethylamino)ethyl)-2-phenylpropanamide] | 91.1 nM
25 | COCCOCCNC(=O)C(C)(c1ccccc1)n1ncc2c1nc(N)n1nc(-c3ccco3)nc21 (centres unmarked) [Example 75, 2-(5-amino-2-(furan-2-yl)-7H-pyrazolo[4,3-e][1,2,4]triazolo[1,5-c]pyrimidin-7-yl)-N-(2-(2-methoxyethoxy)ethyl)-2-phenylpropanamide] | 16.9 nM
26 | C[C@](C(=O)NCc1cc(C(F)(F)F)ccn1)(c1ccccc1)n1ncc2c1nc(N)n1nc(-c3ccco3)nc21 [Example 143B, (R)-2-(5-amino-2-(furan-2-yl)-7H-pyrazolo[4,3-e][1,2,4]triazolo[1,5-c]pyrimidin-7-yl)-2-phenyl-N-((4-(trifluoromethyl)pyridin-2-yl)methyl)propanamide] | 5.8 nM
